Data set [1] is described as follows: Solubility in aqueous solution containing 0.3% or 1% Cremophor EL (Example 3-3). Format: physicochemical. Particulars: 25° C., 22 to 24 hours. The method, then:
Evaluation of the solubility of the cyclic peptide compound in the presence of a surfactant was performed. To lyophilized powder of the compound, an aqueous solution containing 0.3% or 1% Cremophor EL (CreEL) was added, and after shaking (at 25° C., 1000 rpm, for 22 to 24 hours), the mixed solution was filtered through a filter, and the compound concentration of the filtrate was measured by LC/UV. Solubility (μg/mL) was calculated from the measured compound concentration.

The nature of data set [2]: Evaluation of Caco-2 membrane permeability. The data set is classed as in vitro ADME. Particulars: human, Apical FaSSIF/HBSS pH 6.0 to Basal HBSS 4% BSA pH 7.4, 180 minutes, after 18 to 24 hours preincubation, read-out: Caco2 (Papp). How it is done:
The permeability coefficient (Caco-2 Papp (cm/sec)) is calculated using a numerical expression 1.
[formula] • where dQ/dt is the permeation rate of the drug (amount of drug appearing on the Basal side per unit time), S is the total cell surface area, and C1 (0) is the concentration of drug added on the Apical side.
Caco-2 cells were cultured on 96-well Transwell for 3 weeks, then DMEM, FaSSIF (1% DMSO), and the compound were added to the Apical side, DMEM was added to the Basal side, and the cells were preincubated under 5% CO2 at 37° C. with shaking at 80 rpm for 18 to 24 hours. After the preincubation, the preincubation solutions on the Apical side and Basal side were sucked off and washed, a FaSSIF/HBSS buffer solution (1% DMSO) (pH 6.0) containing the compound was added to the Apical side, a HBSS buffer solution (4% BSA) (pH 7.4) was added to the Basal side, and measurement of membrane permeability was started. Each well was shaken under 5% CO2 at 37° C. and 80 rpm, and at 180 minutes after the start of shaking, a sample on the Basal side was collected, and the permeation amount was measured by LC/MS. From the permeation amount, the membrane permeability coefficient (Papp) was calculated. Note that the description “Caco-2 (cm/sec)” in the column in the table herein is used synonymously with “Papp (cm/sec)”.

Data set [3] can be described thus: Solubility of cyclic peptide compound in 50 mM phosphate buffer solution (pH 6.5), 37° C. (Example 3-3). The data set is classed as physicochemical. To be noted: shaking 22 to 24 hours, read-out: solubility in 50 mM phosphate buffer solution (PPB). The method, then: Evaluation of the solubility of the cyclic peptide compound was performed. To lyophilized powder of the compound, a 50 mM phosphate buffer solution (PPB: Phosphate buffer, pH 6.5) was added, and after shaking (at 37° C., 1800 rpm, for 22 to 24 hours), the mixed solution was filtered through a filter, and the compound concentration of the filtrate was measured by LC/MS/MS. Solubility was calculated from the measured compound concentration. The solubilities of the compounds 3, 4, 6, 7, and 8 were 11 μg/mL, 1 μg/mL, 1 μg/mL, 15 μg/mL, and 5 μg/mL, respectively.

Setting [4] is: 0.3% Cremophor EL aqueous solution, read-out: solubility, 0.3% Cremophor EL.
Where [5] appears, read: 1% Cremophor EL aqueous solution, read-out: solubility, 1% Cremophor EL.

Converted amounts (≈) assume the structure as drawn. Bridge positions count the residues as written; N and C are the ends. Square brackets hold non-standard residues; d marks the D form. Peptide text beside a SMILES is read from it. * marks the point of attachment. hPhe(3-Cl-4-CF3) = N[C@@H](CCc1ccc(C(F)(F)F)c(Cl)c1)C(=O)O; NMePhe(4-Me) = CN[C@@H](Cc1ccc(C)cc1)C(=O)O; NMeGly(cPent) = CN[C@H](C(=O)O)C1CCCC1; Bta = N[C@@H](Cc1csc2ccccc12)C(=O)O; NMeCha = CN[C@@H](CC1CCCCC1)C(=O)O; NMeF = CN[C@@H](Cc1ccccc1)C(=O)O; NMeI = CC[C@H](C)[C@H](NC)C(=O)O; NMeD = CN[C@@H](CC(=O)O)C(=O)O; NMeL = CN[C@@H](CC(C)C)C(=O)O; NMeAbu = CC[C@H](NC)C(=O)O; NMeA = CN[C@@H](C)C(=O)O; Piperidide = C1CCN(*)CC1; Ac5c = NC1(C(=O)O)CCCC1; Aze = O=C(O)[C@@H]1CCN1; Sar = CNCC(=O)O; tBu = CC(C)(C)*

`CCO[C@@H]1C[C@H]2C(=O)NC3(CCC3)C(=O)N(C)[C@@H](C3CCCC3)C(=O)N(C)[C@H](C(=O)N(C)C)CC(=O)N(C)[C@@H](CC)C(=O)N[C@@H]([C@@H](C)CC)C(=O)N(C)CC(=O)N(C)[C@H]3C/C=C\CCN(C3=O)[C@@H](Cc3ccc(C(F)(F)F)cc3)C(=O)N(C)CC(=O)N[C@@H](CCc3cc(F)c(C(F)(F)F)c(F)c3)C(=O)N2C1` [Compound 10]: the solubility (commonly how much of the substance goes into solution per volume) was 583 µg/mL (≈ 387 µM) in data set [1] (setting [4]) and 1680 µg/mL (≈ 1120 µM) in data set [1] (setting [5]). For the same compound, in data set [2], the Papp A→B at 180 min came to 0.7 ×10⁻⁶ cm/s.

In the case of `CC[C@H](C)[C@@H]1NC(=O)[C@H](CC(C)C)N(C)C(=O)C[C@@H](C(=O)N(C)C)N(C)C(=O)[C@H]([C@@H](C)CC)N(C)C(=O)C2(CCCC2)NC(=O)[C@@H]2CCCN2C(=O)[C@H](CCc2ccc(C(F)(F)F)c(Cl)c2)NC(=O)CN(C)C(=O)[C@H](Cc2ccc(C)cc2)N(C)C(=O)[C@@H]2CCN2C(=O)[C@H](C)N(C)C1=O` [Compound 7] ([NMeL]I[NMeA][Aze][NMePhe(4-Me)][Sar][hPhe(3-Cl-4-CF3)]P[Ac5c][NMeI][NMeD]-NMe2; lactam N-11), the results for the solubility in data set [3], in data set [1] (setting [4]) and in data set [1] (setting [5]) were 15 µg/mL (≈ 10.6 µM), 492 µg/mL (≈ 349 µM) and 1640 µg/mL (≈ 1170 µM), respectively. For the same compound, the Papp A→B at 180 min in data set [2] turned out to be 2.96 ×10⁻⁶ cm/s.

As to `CC[C@H]1C(=O)N[C@@H](COC(C)(C)C)C(=O)N(C)[C@@H](Cc2ccccc2)C(=O)N(C)[C@@H](C)C(=O)N[C@H](C(=O)N2CCCCC2)CC(=O)N[C@H](CC(C)C)C(=O)N(C)[C@@H](CC(C)C)C(=O)N[C@@H](Cc2csc3ccccc23)C(=O)N(C)[C@@H](CC(C)C)C(=O)N[C@@H]([C@@H](C)O)C(=O)N(C)CC(=O)N1C` [Compound 5] ([dL][NMeL][Bta][NMeL]T[Sar][NMeAbu]S(tBu)[NMeF][NMeA]D-Piperidide; lactam N-11), the solubility worked out at 295 µg/mL (≈ 209 µM) in data set [1] (setting [4]) and 1110 µg/mL (≈ 785 µM) in data set [1] (setting [5]). In data set [2], the Papp A→B at 180 min came out at 1.42 ×10⁻⁶ cm/s.

On to `CC(C)C[C@@H]1NC(=O)[C@H](Cc2ccccc2)N(C)C(=O)[C@H](COC(C)(C)C)NC(=O)[C@H](Cc2ccccc2)N(C)C(=O)[C@H](C)N(C)C(=O)[C@H](CC(C)C)N(C)C(=O)[C@@H](C)NC(=O)C[C@@H](C(=O)N2CCCCC2)NC(=O)[C@H](Cc2ccccc2)N(C)C(=O)[C@H]([C@@H](C)O)NC(=O)[C@H](CC(C)C)N(C)C1=O` [Compound 4] ([dA][NMeL][NMeA][NMeF]S(tBu)[NMeF]L[NMeL]T[NMeF]D-Piperidide; lactam N-11), for which the solubility stood at 1 µg/mL (≈ 0.697 µM) in data set [3], 214 µg/mL (≈ 149 µM) in data set [1] (setting [4]) and 789 µg/mL (≈ 550 µM) in data set [1] (setting [5]). For the same compound, in data set [2], the Papp A→B at 180 min amounted to 1.45 ×10⁻⁶ cm/s.

With `CC[C@H](C)[C@@H]1NC(=O)[C@H](CC(C)C)N(C)C(=O)C[C@@H](C(=O)N2CCCCC2)N(C)C(=O)[C@H](C2CCCC2)N(C)C(=O)C2(CCCC2)NC(=O)[C@@H]2CCCN2C(=O)[C@H](CCc2ccc(C(F)(F)F)c(Cl)c2)NC(=O)CN(C)C(=O)[C@H](CC2CCCCC2)N(C)C(=O)[C@@H]2CCN2C(=O)[C@H](C)N(C)C1=O` [Compound 6] ([NMeL]I[NMeA][Aze][NMeCha][Sar][hPhe(3-Cl-4-CF3)]P[Ac5c][NMeGly(cPent)][NMeD]-Piperidide; lactam N-11), the solubility in data set [3] stood at 1 µg/mL (≈ 0.688 µM); in data set [1] (setting [4]) it was 434 µg/mL (≈ 298 µM); in data set [1] (setting [5]) it was 1450 µg/mL (≈ 999 µM). In addition, the Papp A→B at 180 min in data set [2] came out at 0.61 ×10⁻⁶ cm/s.

(Values after patent publication US20260273107A1, “COMPOUND PHARMACEUTICAL PREPARATION CONTAINING OIL COMPONENT COMPRISING POLYOXYETHYLENE STRUCTURE” (CHUGAI SEIYAKU KABUSHIKI KAISHA, priority 2022, published 2026).)
